Data taken from ChEMBL document CHEMBL1201862, “PubChem BioAssay data set” (2004).
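In this assay, cells in 96-well plates receive the compound at five concentrations for 48 hours. Endpoints are linearly interpolated between the surrounding concentrations. GI50 is the concentration that inhibits growth by half.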 Active and inactive are the calls of the source. Rule as the data show it: active = GI50 up to about 1.1 µM and inactive = higher.

Legend:
Experiment in all cases: growth of human tumour cells (NCI), 48 h
IGROV-1 = system: IGROV-1
SF-268 = system: SF-268
U-251 = system: U-251
HOP-62 = system: HOP-62
HL-60 = system: HL-60
SK-MEL-28 = system: SK-MEL-28
MOLT-4 = system: MOLT-4
UACC-62 = system: UACC-62
SW-620 = system: SW-620
M14 = system: M14
OVCAR-3 = system: OVCAR-3
ACHN = system: ACHN
NCI-H226 = system: NCI-H226
RXF 393 = system: RXF 393
RPMI-8226 = system: RPMI-8226
NCI-H460 = system: NCI-H460
SK-OV-3 = system: SK-OV-3
HCT-15 = system: HCT-15

SMILES | GI50 (IGROV-1) | GI50 (SF-268) | GI50 (U-251) | GI50 (HOP-62) | GI50 (HL-60) | GI50 (SK-MEL-28) | GI50 (MOLT-4) | GI50 (UACC-62) | GI50 (SW-620) | GI50 (M14) | GI50 (OVCAR-3) | GI50 (ACHN) | GI50 (NCI-H226) | GI50 (RXF 393) | GI50 (RPMI-8226) | GI50 (NCI-H460) | GI50 (SK-OV-3) | GI50 (HCT-15) [µM]
CCCCCCC(=O)C/C(=N/NC(N)=S)C(=O)NC1C2CC3CC(C2)CC1C3 (centres undefined) | > 100 µM (inactive) | > 100 µM (inactive) | > 100 µM (inactive) | > 100 µM (inactive) | > 100 µM (inactive) | > 100 µM (inactive) | > 100 µM (inactive) | > 100 µM (inactive) | > 100 µM (inactive) | > 100 µM (inactive) | > 100 µM (inactive) | > 100 µM (inactive) | > 100 µM (inactive) | > 100 µM (inactive) | > 100 µM (inactive) | > 100 µM (inactive) |  | 
S=C1SCC2CCCN12 (centres undefined) | > 100 µM (inactive) | > 100 µM (inactive) | > 100 µM (inactive) | > 100 µM (inactive) | > 100 µM (inactive) |  | > 100 µM (inactive) | > 100 µM (inactive) | > 100 µM (inactive) | > 100 µM (inactive) |  | > 100 µM (inactive) |  | > 100 µM (inactive) | > 100 µM (inactive) | > 100 µM (inactive) | > 100 µM (inactive) | > 100
CC12N=NNC1C(=O)NC2=O (centres undefined) | > 100 µM (inactive) | > 100 µM (inactive) | > 100 µM (inactive) | > 100 µM (inactive) | > 100 µM (inactive) | > 100 µM (inactive) | > 100 µM (inactive) | > 100 µM (inactive) | > 100 µM (inactive) |  | > 100 µM (inactive) | > 100 µM (inactive) | > 100 µM (inactive) |  | > 100 µM (inactive) | > 100 µM (inactive) | > 100 µM (inactive) | > 100
OCC12C3C4C1C1C2C3C41CO (centres undefined) | > 100 µM (inactive) | > 100 µM (inactive) | > 100 µM (inactive) | > 100 µM (inactive) |  | > 100 µM (inactive) | > 100 µM (inactive) | > 100 µM (inactive) | > 100 µM (inactive) | > 100 µM (inactive) | > 100 µM (inactive) | > 100 µM (inactive) | > 100 µM (inactive) |  | > 100 µM (inactive) | > 100 µM (inactive) | > 100 µM (inactive) | > 100
O=C(CCc1cc(-c2ccco2)n(-c2ccc([N+](=O)[O-])cc2[N+](=O)[O-])n1)Nc1ccccc1 | > 100 µM (inactive) | > 100 µM (inactive) | > 100 µM (inactive) | > 100 µM (inactive) | 49.3 µM (inactive) | > 100 µM (inactive) | 65.8 µM (inactive) | > 100 µM (inactive) | > 100 µM (inactive) | > 100 µM (inactive) |  | > 100 µM (inactive) | > 100 µM (inactive) | > 100 µM (inactive) | > 100 µM (inactive) | > 100 µM (inactive) | > 100 µM (inactive) | > 100
COc1ccc(CN(CCN(C)C)c2ccccn2)cc1.Cn1c(=O)c2[nH]c(Br)nc2n(C)c1=O | > 100 µM (inactive) | > 100 µM (inactive) | > 100 µM (inactive) | > 100 µM (inactive) |  | > 100 µM (inactive) | > 100 µM (inactive) |  | > 100 µM (inactive) | > 100 µM (inactive) | > 100 µM (inactive) | > 100 µM (inactive) |  |  |  |  | > 100 µM (inactive) | 71.6
O=C(CC1Sc2ccccc2NC1=O)Nc1cccc(Cl)c1 (centres undefined) | 40.9 µM (inactive) | 34.9 µM (inactive) | 30.4 µM (inactive) |  | 35.6 µM (inactive) | 24 µM (inactive) | 15.9 µM (inactive) | 28.3 µM (inactive) | 34.4 µM (inactive) | 38.3 µM (inactive) | 27 µM (inactive) | 31.8 µM (inactive) | 26.8 µM (inactive) | 33.3 µM (inactive) | 21.7 µM (inactive) | 38.5 µM (inactive) |  | 40.6
CC(C)(C)OC(=O)C#CC[C@H]1CCCC1/C=C/C(O)=C1/C(=O)NC(CCCNC(=O)OC(C)(C)C)C1=O (some centres undefined) | 39.5 µM (inactive) | 23.9 µM (inactive) | 25.9 µM (inactive) | 45.4 µM (inactive) | 33.3 µM (inactive) | 17.1 µM (inactive) | 32.1 µM (inactive) | 18.3 µM (inactive) | 38.5 µM (inactive) | 45.7 µM (inactive) | 31.8 µM (inactive) | 40.7 µM (inactive) | 88.1 µM (inactive) | 14.7 µM (inactive) | 33.2 µM (inactive) | 20.3 µM (inactive) | 88.5 µM (inactive) | 
O=C(NN1C(=O)C(Cl)C1c1c(O)ccc2ccccc12)c1ccccc1O (centres undefined) | > 100 µM (inactive) | > 100 µM (inactive) | > 100 µM (inactive) |  | > 100 µM (inactive) | > 100 µM (inactive) | > 100 µM (inactive) | > 100 µM (inactive) |  | > 100 µM (inactive) | > 100 µM (inactive) | > 100 µM (inactive) | > 100 µM (inactive) | > 100 µM (inactive) |  | > 100 µM (inactive) | > 100 µM (inactive) | > 100
Cc1cc2c(C)nn(Cc3ccc(Cl)cc3Cl)c2c(C#N)c1C | > 100 µM (inactive) | > 100 µM (inactive) | > 100 µM (inactive) | > 100 µM (inactive) | > 100 µM (inactive) | > 100 µM (inactive) | > 100 µM (inactive) | > 100 µM (inactive) | > 100 µM (inactive) |  | > 100 µM (inactive) | > 100 µM (inactive) | > 100 µM (inactive) | 67 µM (inactive) | > 100 µM (inactive) | 79.4 µM (inactive) | > 100 µM (inactive) | > 100
CN1CCc2c1nc(-c1ccc(Cl)cc1)c1c2N(C)CC1 | 3.06 µM (inactive) | 21.5 µM (inactive) | 3.74 µM (inactive) | 11.2 µM (inactive) | 10.7 µM (inactive) |  | 6.28 µM (inactive) | 5.94 µM (inactive) | 24.4 µM (inactive) | 7.71 µM (inactive) | 1.51 µM (inactive) | 6.78 µM (inactive) |  | 10.9 µM (inactive) | 9.06 µM (inactive) | 15.7 µM (inactive) | 21.2 µM (inactive) | 7.06
CC1=C(O)C(=O)C2C(=O)C1C(C)C2c1ccc(Cl)cc1 (centres undefined) | > 100 µM (inactive) | > 100 µM (inactive) | > 100 µM (inactive) | > 100 µM (inactive) | > 100 µM (inactive) | > 100 µM (inactive) | > 100 µM (inactive) | > 100 µM (inactive) | > 100 µM (inactive) | > 100 µM (inactive) | > 100 µM (inactive) | > 100 µM (inactive) | > 100 µM (inactive) | > 100 µM (inactive) | > 100 µM (inactive) |  | > 100 µM (inactive) | > 100
O=C1CCC2(c3ccc(F)cc3)Nc3ncccc3N12 (centres undefined) | > 100 µM (inactive) | > 100 µM (inactive) | > 100 µM (inactive) | > 100 µM (inactive) | > 100 µM (inactive) | > 100 µM (inactive) | > 100 µM (inactive) | > 100 µM (inactive) | > 100 µM (inactive) | > 100 µM (inactive) | > 100 µM (inactive) | > 100 µM (inactive) | > 100 µM (inactive) | > 100 µM (inactive) | > 100 µM (inactive) | > 100 µM (inactive) |  | > 100
O=C(CO)CC(=O)C(=O)Nc1cccc(C(F)(F)F)c1 | > 100 µM (inactive) | > 100 µM (inactive) |  | > 100 µM (inactive) | > 100 µM (inactive) | > 100 µM (inactive) | > 100 µM (inactive) | > 100 µM (inactive) | > 100 µM (inactive) | > 100 µM (inactive) | > 100 µM (inactive) | > 100 µM (inactive) | > 100 µM (inactive) |  | > 100 µM (inactive) | > 100 µM (inactive) | > 100 µM (inactive) | > 100
Nc1nc2[nH]cnc2c(=O)[nH]1 | > 100 µM (inactive) | > 100 µM (inactive) | > 100 µM (inactive) | > 100 µM (inactive) | > 100 µM (inactive) | > 100 µM (inactive) |  | > 100 µM (inactive) | > 100 µM (inactive) | > 100 µM (inactive) | > 100 µM (inactive) | > 100 µM (inactive) | > 100 µM (inactive) | > 100 µM (inactive) | > 100 µM (inactive) | > 100 µM (inactive) | > 100 µM (inactive) | > 100
COC(=O)CCC(=O)Nc1cccc(C(F)(F)F)c1 | > 100 µM (inactive) | > 100 µM (inactive) | > 100 µM (inactive) | > 100 µM (inactive) | > 100 µM (inactive) | > 100 µM (inactive) | > 100 µM (inactive) | > 100 µM (inactive) | > 100 µM (inactive) | > 100 µM (inactive) | > 100 µM (inactive) | > 100 µM (inactive) |  | > 100 µM (inactive) | > 100 µM (inactive) | > 100 µM (inactive) | > 100 µM (inactive) | > 100
CCCCCC/C=C1\CCC(CN2CCOCC2)C1=O (centres undefined) | 19 µM (inactive) | 19.6 µM (inactive) | 15.5 µM (inactive) | 18.3 µM (inactive) | 2.77 µM (inactive) | 16.9 µM (inactive) | 5.26 µM (inactive) | 16.8 µM (inactive) | 8.2 µM (inactive) | 14.6 µM (inactive) | 18.5 µM (inactive) | 17.4 µM (inactive) | 16 µM (inactive) |  | 2.24 µM (inactive) | 38.7 µM (inactive) | 35.8 µM (inactive) | 8.67
